Measured values published in patent US20140058103A1, “Inhibitors of PI3K-Delta and Methods of Their Use and Manufacture” (Exelixis, Inc., priority 2010, published 2014).

Biological target: PI3K delta (Homo sapiens, UniProt O00329)
Experiment: Luciferase-coupled chemiluminescence kinase assay (ATP consumption, KinaseGlo)
Format: biochemical
Description: Kinase activity and compound inhibition were investigated using one or more of the assay formats described below. The ATP concentrations used in the various assays were approximately equal to or less than the KM for each of the respective kinases. Dose-response experiments were performed using an intra-plate dilution scheme with 10 different inhibitor concentrations in a 384-well microtiter plate. IC50 values were calculated by nonlinear regression analysis using the four-parameter equation listed below:
Y=min+(max−min)/(1+(X/IC50)^N) Equation 1
Typically N should approximate unity. Curve fitting was performed using XLFit or ActivityBase.
Kinase activity is measured as the percent of ATP consumed following the kinase reaction using luciferase-luciferin-coupled chemiluminescence. […] Kinase reactions were initiated by combining test compounds, kinase, and ATP in a 20 μL volume (6 μL volume for 1536-well plate). The reaction mixture was incubated at ambient temperature for 2 h. Following the kinase reaction, a 20 μL (or […] for 1536-well plate) aliquot of KinaseGlo (Promega) was added and the chemiluminescence signal measured using an EnVision plate reader (Perkin Elmer).

Sequence of PI3K delta (O00329 whole entry): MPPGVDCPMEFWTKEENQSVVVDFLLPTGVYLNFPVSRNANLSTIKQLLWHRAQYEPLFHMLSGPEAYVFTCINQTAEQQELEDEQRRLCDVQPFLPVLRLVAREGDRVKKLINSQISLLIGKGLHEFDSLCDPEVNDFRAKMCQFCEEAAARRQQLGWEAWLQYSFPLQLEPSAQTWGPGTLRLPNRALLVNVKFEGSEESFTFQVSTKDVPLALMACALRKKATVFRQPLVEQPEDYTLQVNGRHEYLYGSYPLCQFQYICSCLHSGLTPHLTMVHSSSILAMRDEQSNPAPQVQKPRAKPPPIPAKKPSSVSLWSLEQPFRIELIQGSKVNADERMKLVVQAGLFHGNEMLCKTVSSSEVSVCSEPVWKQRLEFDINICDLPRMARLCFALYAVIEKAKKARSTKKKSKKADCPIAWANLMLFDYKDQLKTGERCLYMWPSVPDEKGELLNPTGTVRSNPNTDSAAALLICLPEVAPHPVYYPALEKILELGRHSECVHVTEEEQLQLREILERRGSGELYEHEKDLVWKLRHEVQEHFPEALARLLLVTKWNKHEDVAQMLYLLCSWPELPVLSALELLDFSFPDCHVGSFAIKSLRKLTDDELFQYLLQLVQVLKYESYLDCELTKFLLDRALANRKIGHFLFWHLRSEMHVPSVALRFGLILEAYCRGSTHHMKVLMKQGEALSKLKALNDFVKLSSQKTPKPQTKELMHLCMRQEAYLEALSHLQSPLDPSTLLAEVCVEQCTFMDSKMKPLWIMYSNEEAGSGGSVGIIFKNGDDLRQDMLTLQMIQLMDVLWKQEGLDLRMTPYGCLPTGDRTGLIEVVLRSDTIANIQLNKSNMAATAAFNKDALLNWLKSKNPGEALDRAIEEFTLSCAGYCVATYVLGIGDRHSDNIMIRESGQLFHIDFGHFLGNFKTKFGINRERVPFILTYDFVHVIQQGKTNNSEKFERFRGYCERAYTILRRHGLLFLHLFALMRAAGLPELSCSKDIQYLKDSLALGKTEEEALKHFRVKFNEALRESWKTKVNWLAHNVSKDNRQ
Sequence of PI3K delta (P27986 whole entry partner): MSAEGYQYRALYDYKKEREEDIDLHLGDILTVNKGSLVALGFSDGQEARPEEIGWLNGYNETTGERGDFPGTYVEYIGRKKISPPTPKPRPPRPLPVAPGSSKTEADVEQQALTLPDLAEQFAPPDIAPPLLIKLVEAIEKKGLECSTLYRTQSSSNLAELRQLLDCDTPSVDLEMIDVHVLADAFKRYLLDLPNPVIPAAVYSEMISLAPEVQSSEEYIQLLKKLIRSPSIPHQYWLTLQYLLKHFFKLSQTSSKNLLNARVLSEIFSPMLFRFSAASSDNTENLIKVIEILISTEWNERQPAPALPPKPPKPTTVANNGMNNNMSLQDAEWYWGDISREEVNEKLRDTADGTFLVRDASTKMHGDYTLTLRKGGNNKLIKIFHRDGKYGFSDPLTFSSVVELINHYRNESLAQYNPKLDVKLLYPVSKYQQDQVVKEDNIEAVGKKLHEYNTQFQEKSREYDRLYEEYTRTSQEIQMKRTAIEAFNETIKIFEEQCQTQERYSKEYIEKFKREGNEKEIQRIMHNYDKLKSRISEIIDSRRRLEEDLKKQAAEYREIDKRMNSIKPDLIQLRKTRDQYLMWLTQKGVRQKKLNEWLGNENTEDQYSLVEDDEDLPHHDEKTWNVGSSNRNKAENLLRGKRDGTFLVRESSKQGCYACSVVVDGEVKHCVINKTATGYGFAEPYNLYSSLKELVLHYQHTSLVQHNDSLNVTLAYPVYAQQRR

IC50 [nM]	SMILES
50 to 250	Cn1c(C(=O)NC2CCc3ccccc32)nc2c(N3CCC(n4c(=O)[nH]c5ccccc54)CC3)ncnc21 (stereo not drawn) [Compound 47, N-(2,3-dihydro-1H-inden-1-yl)-9-methyl-6-[4-(2-oxo-2,3-dihydro-1H-benzimidazol-1-yl)piperidin-1-yl]-9H-purine-8-carboxamide]
50 to 250	Cn1c(C(=O)NCCCO)nc2c(N3CCC(n4c(=O)[nH]c5ccccc54)CC3)ncnc21 [Compound 48, N-(3-hydroxypropyl)-9-methyl-6-[4-(2-oxo-2,3-dihydro-1H-benzimidazol-1-yl)piperidin-1-yl]-9H-purine-8-carboxamide]
50 to 250	Cn1c(C(=O)NCc2cccs2)nc2c(N3CCC(n4c(=O)[nH]c5ccccc54)CC3)ncnc21 [Compound 49, 9-methyl-6-[4-(2-oxo-2,3-dihydro-1H-benzimidazol-1-yl)piperidin-1-yl]-N-(2-thienylmethyl)-9H-purine-8-carboxamide]
250 to 500	Cn1c(C(=O)NCc2ccc3c(c2)OCO3)nc2c(N3CCC(n4c(=O)[nH]c5ccccc54)CC3)ncnc21 [Compound 50, N-(1,3-benzodioxol-5-ylmethyl)-9-methyl-6-[4-(2-oxo-2,3-dihydro-1H-benzimidazol-1-yl)piperidin-1-yl]-9H-purine-8-carboxamide]
500 to 1500	Cn1c(C(=O)NCCc2ccccn2)nc2c(N3CCC(n4c(=O)[nH]c5ccccc54)CC3)ncnc21 [Compound 51, 9-methyl-6-[4-(2-oxo-2,3-dihydro-1H-benzimidazol-1-yl)piperidin-1-yl]-N-(2-pyridin-2-ylethyl)-9H-purine-8-carboxamide]
50 to 250	Cn1c(C(=O)NCc2ccncc2)nc2c(N3CCC(n4c(=O)[nH]c5ccccc54)CC3)ncnc21 [Compound 52, 9-methyl-6-[4-(2-oxo-2,3-dihydro-1H-benzimidazol-1-yl)piperidin-1-yl]-N-(pyridin-4-ylmethyl)-9H-purine-8-carboxamide]
500 to 1500	CC(NC(=O)c1nc2c(N3CCC(n4c(=O)[nH]c5ccccc54)CC3)ncnc2n1C)c1ccccc1 (stereo not drawn) [Compound 53, 9-methyl-6-[4-(2-oxo-2,3-dihydro-1H-benzimidazol-1-yl)piperidin-1-yl]-N-(1-phenylethyl)-9H-purine-8-carboxamide]
50 to 250	CC(C)NC(=O)c1nc2c(N3CCC(n4c(=O)[nH]c5ccccc54)CC3)ncnc2n1C [Compound 54, 9-methyl-N-(1-methylethyl)-6-[4-(2-oxo-2,3-dihydro-1H-benzimidazol-1-yl)piperidin-1-yl]-9H-purine-8-carboxamide]
50 to 250	Cn1c(C(=O)NCCO)nc2c(N3CCC(n4c(=O)[nH]c5ccccc54)CC3)ncnc21 [Compound 55, N-(2-hydroxyethyl)-9-methyl-6-[4-(2-oxo-2,3-dihydro-1H-benzimidazol-1-yl)piperidin-1-yl]-9H-purine-8-carboxamide]
250 to 500	COc1ccccc1CNC(=O)c1nc2c(N3CCC(n4c(=O)[nH]c5ccccc54)CC3)ncnc2n1C [Compound 56, 9-methyl-N-{[2-(methyloxy)phenyl]methyl}-6-[4-(2-oxo-2,3-dihydro-1H-benzimidazol-1-yl)piperidin-1-yl]-9H-purine-8-carboxamide]
250 to 500	Cc1ccccc1CNC(=O)c1nc2c(N3CCC(n4c(=O)[nH]c5ccccc54)CC3)ncnc2n1C [Compound 57, 9-methyl-N-[(2-methylphenyl)methyl]-6-[4-(2-oxo-2,3-dihydro-1H-benzimidazol-1-yl)piperidin-1-yl]-9H-purine-8-carboxamide]
50 to 250	Cn1c(C(=O)NCc2cccc(F)c2)nc2c(N3CCC(n4c(=O)[nH]c5ccccc54)CC3)ncnc21 [Compound 58, N-[(3-fluorophenyl)methyl]-9-methyl-6-[4-(2-oxo-2,3-dihydro-1H-benzimidazol-1-yl)piperidin-1-yl]-9H-purine-8-carboxamide]
250 to 500	COc1ccc(CNC(=O)c2nc3c(N4CCC(n5c(=O)[nH]c6ccccc65)CC4)ncnc3n2C)cc1 [Compound 59, 9-methyl-N-{[4-(methyloxy)phenyl]methyl}-6-[4-(2-oxo-2,3-dihydro-1H-benzimidazol-1-yl)piperidin-1-yl]-9H-purine-8-carboxamide]
< 50	Cn1c(C(=O)NCC(F)(F)F)nc2c(N3CCC(n4c(=O)[nH]c5ccccc54)CC3)ncnc21 [Compound 60, 9-methyl-6-[4-(2-oxo-2,3-dihydro-1H-benzimidazol-1-yl)piperidin-1-yl]-N-(2,2,2-trifluoromethyl)-9H-purine-8-carboxamide]
250 to 500	CC(CNC(=O)c1nc2c(N3CCC(n4c(=O)[nH]c5ccccc54)CC3)ncnc2n1C)c1ccccc1 (stereo not drawn) [Compound 61, 9-methyl-6-[4-(2-oxo-2,3-dihydro-1H-benzimidazol-1-yl)piperidin-1-yl]-N-(2-phenylpropyl)-9H-purine-8-carboxamide]
50 to 250	CCNC(=O)c1nc2c(N3CCC(n4c(=O)[nH]c5ccccc54)CC3)ncnc2n1C [Compound 62, N-ethyl-9-methyl-6-[4-(2-oxo-2,3-dihydro-1H-benzimidazol-1-yl)piperidin-1-yl]-9H-purine-8-carboxamide]
500 to 1500	Cn1c(C(=O)NCCc2ccc(Cl)cc2)nc2c(N3CCC(n4c(=O)[nH]c5ccccc54)CC3)ncnc21 [Compound 63, N-[2-(4-chlorophenyl)ethyl]-9-methyl-6-[4-(2-oxo-2,3-dihydro-1H-benzimidazol-1-yl)piperidin-1-yl]-9H-purine-8-carboxamide]
500 to 1500	Cc1ccc(CCNC(=O)c2nc3c(N4CCC(n5c(=O)[nH]c6ccccc65)CC4)ncnc3n2C)cc1 [Compound 64, 9-methyl-N-[2-(4-methylphenyl)ethyl]-6-[4-(2-oxo-2,3-dihydro-1H-benzimidazol-1-yl)piperidin-1-yl]-9H-purine-8-carboxamide]
500 to 1500	Cn1c(C(=O)NCCCc2ccccc2)nc2c(N3CCC(n4c(=O)[nH]c5ccccc54)CC3)ncnc21 [Compound 65, 9-methyl-6-[4-(2-oxo-2,3-dihydro-1H-benzimidazol-1-yl)piperidin-1-yl]-N-(3-phenylpropyl)-9H-purine-8-carboxamide]
500 to 1500	Cn1c(C(=O)NCc2ccc(F)cc2F)nc2c(N3CCC(n4c(=O)[nH]c5ccccc54)CC3)ncnc21 [Compound 66, N-[(2,4-difluorophenyl)methyl]-9-methyl-6-[4-(2-oxo-2,3-dihydro-1H-benzimidazol-1-yl)piperidin-1-yl]-9H-purine-8-carboxamide]
< 50	CC(C)CNC(=O)c1nc2c(N3CCC(n4c(=O)[nH]c5ccccc54)CC3)ncnc2n1C [Compound 67, 9-methyl-N-(2-methylpropyl)-6-[4-(2-oxo-2,3-dihydro-1H-benzimidazol-1-yl)piperidin-1-yl]-9H-purine-8-carboxamide]
250 to 500	Cn1c(C(=O)N2CCCC2)nc2c(N3CCC(n4c(=O)[nH]c5ccccc54)CC3)ncnc21 [Compound 68, 1-{1-[9-methyl-8-(pyrrolidin-1-ylcarbonyl)-9H-purin-6-yl]piperidin-4-yl}-1,3-dihydro-2H-benzimidazol-2-one]
50 to 250	CCCNC(=O)c1nc2c(N3CCC(n4c(=O)[nH]c5ccccc54)CC3)ncnc2n1C [Compound 69, 9-methyl-6-[4-(2-oxo-2,3-dihydro-1H-benzimidazol-1-yl)piperidin-1-yl]-N-propyl-9H-purine-8-carboxamide]
250 to 500	CCCCCNC(=O)c1nc2c(N3CCC(n4c(=O)[nH]c5ccccc54)CC3)ncnc2n1C [Compound 70, 9-methyl-6-[4-(2-oxo-2,3-dihydro-1H-benzimidazol-1-yl)piperidin-1-yl]-N-pentyl-9H-purine-8-carboxamide]
250 to 500	CCCCCCNC(=O)c1nc2c(N3CCC(n4c(=O)[nH]c5ccccc54)CC3)ncnc2n1C [Compound 71, N-hexyl-9-methyl-6-[4-(2-oxo-2,3-dihydro-1H-benzimidazol-1-yl)piperidin-1-yl]-9H-purine-8-carboxamide]
50 to 250	CC(C)CCNC(=O)c1nc2c(N3CCC(n4c(=O)[nH]c5ccccc54)CC3)ncnc2n1C [Compound 72, 9-methyl-N-(3-methylbutyl)-6-[4-(2-oxo-2,3-dihydro-1H-benzimidazol-1-yl)piperidin-1-yl]-9H-purine-8-carboxamide]
500 to 1500	Cn1c(C(=O)N2CCC(O)C2)nc2c(N3CCC(n4c(=O)[nH]c5ccccc54)CC3)ncnc21 (stereo not drawn) [Compound 73, 1-(1-[8-[(3-hydroxypyrrolidin-1-yl)carbonyl]-9-methyl-9H-purin-6-yl]piperidin-4-yl)-1,3-dihydro-2H-benzimidazol-2-one]
50 to 250	Cn1c(C(=O)N2CC(O)C2)nc2c(N3CCC(n4c(=O)[nH]c5ccccc54)CC3)ncnc21 [Compound 74, 1-(1-{8-[(3-hydroxyazetidin-1-yl)carbonyl]-9-methyl-9H-purin-6-yl}piperidin-4-yl)-1,3-dihydro-2H-benzimidazol-2-one]
50 to 250	Cn1c(C(=O)NC(C)(C)C)nc2c(N3CCC4(CC3)C(=O)Nc3ccccc34)ncnc21 [Compound 75, N-(1,1-dimethylethyl)-9-methyl-6-(2-oxo-1,2-dihydro-1′H-spiro[indole-3,4′-piperidin]-1′-yl)-9H-purine-8-carboxamide]
500 to 1500	COC(=O)c1nc2c(N3CCC4(CC3)C(=O)Nc3ccccc34)ncnc2n1C [Compound 76, Methyl 9-methyl-6-(2-oxo-1,2-dihydro-1′H-spiro[indole-3,4′-piperidin]-1′-yl)-9H-purine-8-carboxylate]
